Assay results reported in article PMC5218480 (PLoS ONE, 2017).

System: MV-4-11 cells
Assay: Gene expression microarray analysis (Affymetrix PrimeView) and GSEA
Format: cell-based, human
Design: RFU PODN (11730768_x_at) / Fold change /veh PODN (11730768_x_at) / RFU LINC00158 (11744669_a_at) / Fold change /veh LINC00158 (11744669_a_at) / RFU DUSP10 (11751237_a_at) / Fold change /veh DUSP10 (11751237_a_at) / RFU ID3 (11757404_x_at) / Fold change /veh ID3 (11757404_x_at) / RFU PLEKHG5 (11737974_s_at) / Fold change /veh PLEKHG5 (11737974_s_at) / RFU LRRC4B (11730491_at) / Fold change /veh LRRC4B (11730491_at) / RFU GIMAP4 (11747438_a_at) / Fold change /veh GIMAP4 (11747438_a_at) / RFU KRT8 (11758183_x_at) / Fold change /veh KRT8 (11758183_x_at) / RFU CNN1 (11734310_a_at) / Fold change /veh CNN1 (11734310_a_at) / RFU VPS37D (11726825_at) / Fold change /veh VPS37D (11726825_at) / RFU C10orf10 (11716522_x_at) / Fold change /veh C10orf10 (11716522_x_at) / RFU KIR2DL2 /// KIR2DL4 /// KIR2DL5A /// KIR2DL5B /// KIR2DS1 /// KIR2DS2 /// KIR2DS3 /// KIR2DS4 /// KIR3DL3 /// KIR3DL3 /// KIR3DS1 (11738374_at) / Fold change /veh KIR2DL2 /// KIR2DL4 /// KIR2DL5A /// KIR2DL5B /// KIR2DS1 /// KIR2DS2 /// KIR2DS3 /// KIR2DS4 /// KIR3DL3 /// KIR3DL3 /// KIR3DS1 (11738374_at) / RFU C1QL1 (11718748_at) / Fold change /veh C1QL1 (11718748_at) / RFU TMPRSS4 (11747572_a_at) / Fold change /veh TMPRSS4 (11747572_a_at) / RFU HAMP (11756126_x_at) / Fold change /veh HAMP (11756126_x_at) / RFU RNFT2 (11725882_a_at) / Fold change /veh RNFT2 (11725882_a_at) / RFU NR4A2 (11747474_a_at) / Fold change /veh NR4A2 (11747474_a_at) / RFU ABCC12 (11746883_a_at) / Fold change /veh ABCC12 (11746883_a_at) / RFU TMEM136 (11760407_x_at) / Fold change /veh TMEM136 (11760407_x_at) / RFU CLDN22 /// WWC2 (11732394_at) / Fold change /veh CLDN22 /// WWC2 (11732394_at) / RFU HLA-DPB1 (11760878_x_at) / Fold change /veh HLA-DPB1 (11760878_x_at) / RFU SPINT1 (11716480_a_at) / Fold change /veh SPINT1 (11716480_a_at) / RFU GAP43 (11754022_s_at) / Fold change /veh GAP43 (11754022_s_at) / RFU A4GNT (11735810_at) / Fold change /veh A4GNT (11735810_at) / RFU PRB3 (11715151_x_at) / Fold change /veh PRB3 (11715151_x_at) / RFU TUBB4B (11761932_at) / Fold change /veh TUBB4B (11761932_at) / RFU CAPN14 (11732068_a_at) / Fold change /veh CAPN14 (11732068_a_at) / RFU TMCC2 (11721928_a_at) / Fold change /veh TMCC2 (11721928_a_at) / RFU IRGQ (11745062_a_at) / Fold change /veh IRGQ (11745062_a_at) / RFU FAM174B (11720279_a_at) / Fold change /veh FAM174B (11720279_a_at) / RFU TMPRSS4 (11748680_a_at) / Fold change /veh TMPRSS4 (11748680_a_at) / RFU FAM212B (11763350_a_at) / Fold change /veh FAM212B (11763350_a_at) / RFU PLEKHG5 (11743358_a_at) / Fold change /veh PLEKHG5 (11743358_a_at) / RFU ZSCAN30 (11745921_a_at) / Fold change /veh ZSCAN30 (11745921_a_at) / RFU CMKLR1 (11741424_a_at) / Fold change /veh CMKLR1 (11741424_a_at) / RFU LOC101060620 /// MAPK8IP1 (11723275_at) / Fold change /veh LOC101060620 /// MAPK8IP1 (11723275_at) / RFU SPTSSB (11747773_x_at) / Fold change /veh SPTSSB (11747773_x_at) / RFU PRSS12 (11739890_at) / Fold change /veh PRSS12 (11739890_at) / RFU BIN1 (11741810_x_at) / Fold change /veh BIN1 (11741810_x_at) / RFU WNT11 (11732464_a_at) / Fold change /veh WNT11 (11732464_a_at) / RFU C10orf10 (11716521_a_at) / Fold change /veh C10orf10 (11716521_a_at) / RFU C5orf56 (11738089_at) / Fold change /veh C5orf56 (11738089_at) / RFU CYB561 (11721691_x_at) / Fold change /veh CYB561 (11721691_x_at) / RFU ANKRD19P (11752326_a_at) / Fold change /veh ANKRD19P (11752326_a_at) / RFU OR2T12 /// OR2T33 /// OR2T8 (11738714_s_at) / Fold change /veh OR2T12 /// OR2T33 /// OR2T8 (11738714_s_at) / RFU VCAN (11748164_a_at) / Fold change /veh VCAN (11748164_a_at) / RFU JSRP1 (11732532_at) / Fold change /veh JSRP1 (11732532_at) / RFU KRTAP10-11 (11738290_x_at) / Fold change /veh KRTAP10-11 (11738290_x_at) / RFU MYO3A (11730013_a_at) / Fold change /veh MYO3A (11730013_a_at) / RFU EBF3 (11725865_a_at) / Fold change /veh EBF3 (11725865_a_at) / RFU CAMK2N1 (11719241_x_at) / Fold change /veh CAMK2N1 (11719241_x_at) / RFU C5orf56 (11738088_a_at) / Fold change /veh C5orf56 (11738088_a_at) / RFU OLFML3 (11715873_a_at) / Fold change /veh OLFML3 (11715873_a_at) / RFU LOC100653217 /// NTM (11731650_a_at) / Fold change /veh LOC100653217 /// NTM (11731650_a_at) / RFU MAPK11 (11762145_a_at) / Fold change /veh MAPK11 (11762145_a_at) / RFU FIZ1 (11724087_x_at) / Fold change /veh FIZ1 (11724087_x_at) / RFU OASL (11726364_x_at) / Fold change /veh OASL (11726364_x_at) / RFU SOX15 (11748057_x_at) / Fold change /veh SOX15 (11748057_x_at) / RFU CD79A (11719716_a_at) / Fold change /veh CD79A (11719716_a_at) / RFU HIST1H1D (11736915_at) / Fold change /veh HIST1H1D (11736915_at) / RFU CASKIN2 (11723855_a_at) / Fold change /veh CASKIN2 (11723855_a_at) / RFU LOC730098 (11760151_x_at) / Fold change /veh LOC730098 (11760151_x_at) / RFU OR4N2 (11742367_at) / Fold change /veh OR4N2 (11742367_at) / RFU PRRT2 (11749266_a_at) / Fold change /veh PRRT2 (11749266_a_at) / RFU SNX32 (11753110_a_at) / Fold change /veh SNX32 (11753110_a_at) / RFU CDHR5 (11726645_a_at) / Fold change /veh CDHR5 (11726645_a_at) / RFU RCAN1 (11760418_a_at) / Fold change /veh RCAN1 (11760418_a_at) / RFU FAM167A (11723789_a_at) / Fold change /veh FAM167A (11723789_a_at) / RFU FAM26E (11764081_at) / Fold change /veh FAM26E (11764081_at) / RFU ISYNA1 (11749810_s_at) / Fold change /veh ISYNA1 (11749810_s_at) / RFU ACY1 (11761880_at) / Fold change /veh ACY1 (11761880_at) / RFU 11764098_at / Fold change /veh 11764098_at / RFU SAMD14 (11745864_x_at) / Fold change /veh SAMD14 (11745864_x_at) / RFU NPB (11741838_a_at) / Fold change /veh NPB (11741838_a_at) / RFU TMPRSS6 (11731388_a_at) / Fold change /veh TMPRSS6 (11731388_a_at) / RFU KRTAP10-2 (11738614_at) / Fold change /veh KRTAP10-2 (11738614_at) / RFU ARHGAP8 /// PRR5-ARHGAP8 (11727945_x_at) / Fold change /veh ARHGAP8 /// PRR5-ARHGAP8 (11727945_x_at) / RFU KRTAP5-7 /// NADSYN1 (11734609_at) / Fold change /veh KRTAP5-7 /// NADSYN1 (11734609_at) / RFU RASL12 (11751679_a_at) / Fold change /veh RASL12 (11751679_a_at) / RFU CDKN2B (11736163_a_at) / Fold change /veh CDKN2B (11736163_a_at) / RFU PRF1 (11729649_at) / Fold change /veh PRF1 (11729649_at) / RFU, ZNF638 /// ZNF638-IT1 / Fold change vs veh, ZNF638 /// ZNF638-IT1 / RFU, PANK3 / Fold change vs veh, PANK3 / RFU, SH3YL1 / Fold change vs veh, SH3YL1 / RFU, ZEB2 / Fold change vs veh, ZEB2 / RFU, NRIP1 / Fold change vs veh, NRIP1 / RFU, PTTG1IP / Fold change vs veh, PTTG1IP / RFU, CAPN2 / Fold change vs veh, CAPN2 / RFU, MED14 / Fold change vs veh, MED14 / RFU, SNORA58 / Fold change vs veh, SNORA58 / RFU, C1orf63 / Fold change vs veh, C1orf63 / RFU, LRRFIP1 / Fold change vs veh, LRRFIP1 / RFU, NDUFAF7 / Fold change vs veh, NDUFAF7 / RFU, SLC12A2 / Fold change vs veh, SLC12A2 / RFU, IBTK / Fold change vs veh, IBTK / RFU, ESF1 / Fold change vs veh, ESF1 / Fold change vs veh, TMEM50B / RFU, TAOK1 / Fold change vs veh, TAOK1 / RFU, ACBD3 / Fold change vs veh, ACBD3 / RFU, TMA16 / Fold change vs veh, TMA16 / RFU, RWDD3 / Fold change vs veh, RWDD3 / RFU, BCAT1 / Fold change vs veh, BCAT1 / RFU, EDEM3 / Fold change vs veh, EDEM3 / RFU, TMEM33 / Fold change vs veh, TMEM33 / RFU, WDR75 / Fold change vs veh, WDR75 / RFU, AHCTF1 / Fold change vs veh, AHCTF1 / RFU, TFRC / Fold change vs veh, TFRC / RFU, ZDHHC17 / Fold change vs veh, ZDHHC17 / RFU, NOM1 / Fold change vs veh, NOM1 / RFU, ARL8B / Fold change vs veh, ARL8B / RFU, ZBTB11 / Fold change vs veh, ZBTB11 / RFU, TAMM41 / Fold change vs veh, TAMM41 / RFU, KIAA1704 /// LOC100996395 / Fold change vs veh, KIAA1704 /// LOC100996395 / RFU, ING1 / Fold change vs veh, ING1 / RFU, TRMT61B / Fold change vs veh, TRMT61B / RFU, FUBP3 / Fold change vs veh, FUBP3 / RFU, TP53 / Fold change vs veh, TP53 / RFU, TNKS2 / Fold change vs veh, TNKS2 / RFU, ZFP14 / Fold change vs veh, ZFP14 / RFU, ACTR2 / Fold change vs veh, ACTR2 / RFU, PPP3R1 / Fold change vs veh, PPP3R1 / RFU, PIK3R1 / Fold change vs veh, PIK3R1 / RFU, HNRNPA1 / Fold change vs veh, HNRNPA1 / RFU, RNF170 / Fold change vs veh, RNF170 / RFU, ZNF28 / Fold change vs veh, ZNF28 / RFU, RNGTT / Fold change vs veh, RNGTT / RFU, OGT / Fold change vs veh, OGT / RFU, BRD1 / Fold change vs veh, BRD1 / RFU, MARS / Fold change vs veh, MARS / RFU, ZNF655 / Fold change vs veh, ZNF655 / RFU, FAHD1 / Fold change vs veh, FAHD1 / RFU, BDP1 / Fold change vs veh, BDP1 / RFU, LRRCC1 / Fold change vs veh, LRRCC1 / RFU, ARID1A / Fold change vs veh, ARID1A / RFU, ZNF146 / Fold change vs veh, ZNF146 / RFU, ZNF330 / Fold change vs veh, ZNF330 / RFU, GPN3 / Fold change vs veh, GPN3 / RFU, C9orf123 / Fold change vs veh, C9orf123 / RFU, N4BP2L2 / Fold change vs veh, N4BP2L2 / RFU, ARFIP1 / Fold change vs veh, ARFIP1 / RFU, FAM179B / Fold change vs veh, FAM179B / RFU, BCL10 / Fold change vs veh, BCL10 / RFU, UHRF1BP1L / Fold change vs veh, UHRF1BP1L / RFU, BET1 / Fold change vs veh, BET1 / RFU, CNOT2 / Fold change vs veh, CNOT2 / RFU, ZNF268 / Fold change vs veh, ZNF268 / Fold change vs veh, ZNF507 / RFU, DGCR2 / Fold change vs veh, DGCR2 / RFU, WDSUB1 / Fold change vs veh, WDSUB1 / Fold change vs veh, HSP90B1 /// MIR3652 / RFU, ADSS / Fold change vs veh, ADSS / RFU, GK / Fold change vs veh, GK / RFU, ZNF148 / Fold change vs veh, ZNF148 / RFU, TAF9 / Fold change vs veh, TAF9 / RFU, SLC1A5 / Fold change vs veh, SLC1A5 / RFU, SLMO2 / Fold change vs veh, SLMO2 / RFU, ABCC4 / Fold change vs veh, ABCC4 / RFU, LOC101060439 /// RAP1B / Fold change vs veh, LOC101060439 /// RAP1B / RFU, RFX7 / Fold change vs veh, RFX7 / RFU, GTPBP10 / Fold change vs veh, GTPBP10 / RFU, CNEP1R1 / Fold change vs veh, CNEP1R1 / RFU, BIVM-ERCC5 /// ERCC5 / Fold change vs veh, BIVM-ERCC5 /// ERCC5 / RFU, ILF3 / Fold change vs veh, ILF3 / RFU 11762660_at / Fold change /veh 11762660_at / RFU VCAN (11757783_s_at) / Fold change /veh VCAN (11757783_s_at) / RFU DDX43 (11728927_at) / Fold change /veh DDX43 (11728927_at) / RFU KRT8 (11758188_x_at) / Fold change /veh KRT8 (11758188_x_at) / RFU NKD1 (11759106_at) / Fold change /veh NKD1 (11759106_at) / RFU SRD5A1 (11742802_a_at) / Fold change /veh SRD5A1 (11742802_a_at) / RFU TPSAB1 /// TPSB2 (11721975_s_at) / Fold change /veh TPSAB1 /// TPSB2 (11721975_s_at) / RFU GSTM3 (11746129_a_at) / Fold change /veh GSTM3 (11746129_a_at) / RFU IL23R (11737362_x_at) / Fold change /veh IL23R (11737362_x_at) / RFU TMEM51 (11727254_a_at) / Fold change /veh TMEM51 (11727254_a_at) / RFU PIWIL2 (11732686_x_at) / Fold change /veh PIWIL2 (11732686_x_at) / RFU ORM1 (11744905_x_at) / Fold change /veh ORM1 (11744905_x_at) / RFU CCDC152 (11743942_at) / Fold change /veh CCDC152 (11743942_at) / RFU ECM1 (11717891_a_at) / Fold change /veh ECM1 (11717891_a_at) / RFU IL23R (11748794_a_at) / Fold change /veh IL23R (11748794_a_at) / RFU TNFAIP8L3 (11732012_x_at) / Fold change /veh TNFAIP8L3 (11732012_x_at) / RFU MBOAT4 (11741988_at) / Fold change /veh MBOAT4 (11741988_at) / RFU 11764193_at / Fold change /veh 11764193_at / RFU TMEM53 (11763286_at) / Fold change /veh TMEM53 (11763286_at) / RFU MAGEB2 (11727129_at) / Fold change /veh MAGEB2 (11727129_at) / RFU TMEM200A (11744735_a_at) / Fold change /veh TMEM200A (11744735_a_at) / RFU CCDC152 (11751479_a_at) / Fold change /veh CCDC152 (11751479_a_at) / RFU FAM211A (11726209_a_at) / Fold change /veh FAM211A (11726209_a_at) / RFU RGS16 (11746705_a_at) / Fold change /veh RGS16 (11746705_a_at) / RFU VCAN (11755009_s_at) / Fold change /veh VCAN (11755009_s_at) / RFU RHOB (11743442_s_at) / Fold change /veh RHOB (11743442_s_at) / RFU RGS16 (11720943_a_at) / Fold change /veh RGS16 (11720943_a_at) / RFU RGS16 (11720944_at) / Fold change /veh RGS16 (11720944_at) / RFU, VPS4B / Fold change vs veh, VPS4B / RFU, CREB1 / Fold change vs veh, CREB1 / RFU, DNAJC13 / Fold change vs veh, DNAJC13 / RFU, GNAQ / Fold change vs veh, GNAQ / RFU, CDK5R1 / Fold change vs veh, CDK5R1 / RFU, ZRANB3 / Fold change vs veh, ZRANB3 / RFU, CUL4A / Fold change vs veh, CUL4A / RFU, CCNY / Fold change vs veh, CCNY / RFU, UFL1 / Fold change vs veh, UFL1 / RFU, COG3 / Fold change vs veh, COG3 / RFU, DIAPH2 / Fold change vs veh, DIAPH2 / RFU, SKA2 / Fold change vs veh, SKA2 / RFU, AFF3 / Fold change vs veh, AFF3 / RFU, LMF1 / Fold change vs veh, LMF1 / RFU, IPO11 / Fold change vs veh, IPO11 / RFU, DFFB / Fold change vs veh, DFFB / RFU, FOXP1 / Fold change vs veh, FOXP1 / RFU, CARD8 / Fold change vs veh, CARD8 / RFU, STRN3 / Fold change vs veh, STRN3 / RFU, ADK / Fold change vs veh, ADK / RFU, RASSF2 / Fold change vs veh, RASSF2 / RFU, WIPF1 / Fold change vs veh, WIPF1 / RFU, LARP1B / Fold change vs veh, LARP1B / RFU, RASA1 / Fold change vs veh, RASA1 / RFU, RB1 / Fold change vs veh, RB1 / RFU, PPFIA1 / Fold change vs veh, PPFIA1 / RFU, MAT2A / Fold change vs veh, MAT2A / RFU, CCT5 / Fold change vs veh, CCT5 / RFU, WDR92 / Fold change vs veh, WDR92 / RFU, CUX1 / Fold change vs veh, CUX1 / RFU, TTC7A / Fold change vs veh, TTC7A / RFU, TMEM135 / Fold change vs veh, TMEM135 / RFU, DEPTOR / Fold change vs veh, DEPTOR / RFU, CPM / Fold change vs veh, CPM / RFU, DNAJB6 / Fold change vs veh, DNAJB6 / RFU, CACNA2D3 / Fold change vs veh, CACNA2D3 / RFU, DTX4 / Fold change vs veh, DTX4 / RFU, TFCP2 / Fold change vs veh, TFCP2 / RFU, GMCL1 /// GMCL1P1 / Fold change vs veh, GMCL1 /// GMCL1P1 / RFU, AEBP2 / Fold change vs veh, AEBP2 / RFU, SNHG1 /// SNORD22 /// SNORD25 /// SNORD26 /// SNORD27 /// SNORD28 /// SNORD29 /// SNORD31 / Fold change vs veh, SNHG1 /// SNORD22 /// SNORD25 /// SNORD26 /// SNORD27 /// SNORD28 /// SNORD29 /// SNORD31 / Fold change (Aza/veh), C12orf56 (ProbeSet 11735607_a_at) / Fold change (ACY-1035/veh), C12orf56 (ProbeSet 11735607_a_at) / Fold change (Aza/veh), FGFR1OP (ProbeSet 11751329_s_at) / Fold change (ACY-1035/veh), FGFR1OP (ProbeSet 11751329_s_at) / Fold change (Aza/veh), VPS36 (ProbeSet 11739960_a_at) / Fold change (ACY-1035/veh), VPS36 (ProbeSet 11739960_a_at) / RFU SYPL1 (11715823_x_at) / Fold change /veh SYPL1 (11715823_x_at) / RFU IGFBP7 (11715501_s_at) / Fold change /veh IGFBP7 (11715501_s_at) / RFU REEP3 (11722064_at) / Fold change /veh REEP3 (11722064_at) / RFU IGLL1 (11728026_x_at) / Fold change /veh IGLL1 (11728026_x_at): dose or concentration left out as unconfirmed
Conditions: MV-4-11 cells, 48 hours

Structure (SMILES): Nc1ncn([C@@H]2O[C@H](CO)[C@@H](O)[C@H]2O)c(=O)n1 [azacitidine]
- Fold change /veh WNT11 (11732464_a_at): 0.83
